The values that follow are results of earlier work, collected in patent EP4732851A9, “LINKER, ANTIBODY-DRUG CONJUGATE, AND PREPARATION METHOD THEREFOR” (Fudan University, priority 2024, dated 2025).

The conditions of this data set: background statement; cited from earlier work.

In the case of PNU-159682, the “activity compared to MMDX and doxorubicin” value is recorded as 3000 fold.
